Test results taken from PMC5691768, “Comparison of the Micellar Incorporation and the Intestinal Cell Uptake of Cholecalciferol, 25-Hydroxycholecalciferol and 1-α-Hydroxycholecalciferol” (Nutrients, 2017).

Assays:
[1] = Incorporation of vitamin D forms in synthetic mixed micelles; type: physicochemical; details: for incorporation efficiency into synthetic mixed micelles: vitamin D form 0–20 µM, linear incorporation curves, n = 3
Procedure: Mixed micelles were formed as previously described. Briefly, monoolein (0.3 mM), oleic acid (0.5 mM), phosphatidylcholine (0.04 mM), lysophosphatidylcholine (0.16 mM), and cholesterol (0.1 mM) dissolved in trichloromethane/methanol (2:1, v/v) and vitamin D forms (concentration range: 0–20 µM) dissolved in ethanol were transferred to a glass tube, and the solvent mixture was carefully evaporated under nitrogen. The dried residue was dispersed in DMEM containing 5 mM sodium taurocholate and was incubated at 37 °C for 30 min. The solution was mixed by sonication in a bath sonicator (Branson 3510 MT, 40 kHz; Branson Ultrasonics, Danbury, CT, USA) for 30 min and then incubated at 37 °C for 1 h. It was then filtrated through cellulose ester membranes (0.22 µm) (Millipore S.A.S., Molsheim, France), and the resulting solution of vitamin D-rich mixed micelles was stored at −20 °C until cell culture experiment or vitamin extraction and HPLC analysis. Concentrations of the different forms in the micellar solutions were checked before each experiment.
(§1) Vitamin D forms were extracted from 500 µL aqueous samples using the method previously described. The internal standard was retinyl acetate for D3 and ergocalciferol for both 25(OH)D3 and 1α(OH)D3. After lipid extraction with hexane, dried residues were dissolved in 200 µL of mobile phase (acetonitrile/methanol/water, 60/38/2, v/v/v). A volume of 160 µL was used for HPLC analysis.
(§2) The HPLC system and method were set up according to previous studies. All molecules were identified by retention time compared with pure standards.

[2] = tested on: Caco-2 clone TC-7 cells; assay: Apical uptake of micellar vitamin D forms by Caco-2 cell monolayers; type: in vitro ADME, human; details: 1 h incubation, mixed micelles; for uptake rate by Caco-2 cells at high concentration: >5 µM apical, n = 6; for uptake rate by Caco-2 cells at low concentration: <1 µM apical, n = 3
Procedure: (§3) Caco-2 clone TC-7 cells were cultured as previously described. For each experiment, cells were seeded and grown on Millicell® hanging cell culture inserts (Millipore S.A.S., Molsheim, France) for 21 days to obtain confluent and highly differentiated cell monolayers. Twelve hours prior to each experiment, the medium in both the apical and basolateral chambers was replaced with serum-free complete medium. The apical uptake of vitamin D forms incorporated in mixed micelles was determined after a 1 h-incubation period in the presence or absence of inhibitors, as previously described. The % of vitamin D taken up was estimated as the quantity of vitamin D present in the harvested cells divided by the sum of the quantity of vitamin D remaining in the apical chamber and that present in the harvested cells. The efflux of vitamin D forms incorporated in mixed micelles was determined as previously described, with minor changes. Briefly, cells first received the vitamin D-rich micelles at the apical side for 4 h. They were then washed once with PBS and equilibrated in serum-free complete medium for 15 min. Cells were either harvested (control) or they received apical medium containing vitamin D-free mixed micelles for 1 h. The % of vitamin D effluxed back to the apical side was estimated as the quantity of vitamin D present in the apical chamber divided by the quantity of vitamin D present in the harvested cells at t0.
as §1, §2

[3] = target: T1, SR-BI (Homo sapiens, UniProt Q8WTV0); assay: Uptake by Caco-2 cells with SR-BI inhibition by BLT1; type: in vitro ADME; details: 10 µM BLT1 (SR-BI inhibitor), n = 3
T1 construct: endogenous in cells; host or cells: Caco-2 clone TC-7
T1 sequence (Q8WTV0 1-509 isoform Q8WTV0-2): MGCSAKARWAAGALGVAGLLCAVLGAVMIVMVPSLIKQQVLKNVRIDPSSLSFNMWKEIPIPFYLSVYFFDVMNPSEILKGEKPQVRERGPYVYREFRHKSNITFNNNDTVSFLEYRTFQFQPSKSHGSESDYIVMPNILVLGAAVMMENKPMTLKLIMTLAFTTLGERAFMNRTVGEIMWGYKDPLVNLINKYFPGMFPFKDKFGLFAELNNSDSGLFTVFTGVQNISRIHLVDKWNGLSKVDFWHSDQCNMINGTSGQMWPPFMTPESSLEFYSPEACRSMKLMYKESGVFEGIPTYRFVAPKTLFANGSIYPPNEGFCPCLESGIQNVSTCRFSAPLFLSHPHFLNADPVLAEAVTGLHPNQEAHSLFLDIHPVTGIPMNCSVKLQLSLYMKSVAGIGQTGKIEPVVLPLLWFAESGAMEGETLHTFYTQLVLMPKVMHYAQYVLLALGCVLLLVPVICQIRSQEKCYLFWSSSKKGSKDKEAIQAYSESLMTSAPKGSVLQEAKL
Procedure: as §3

[4] = target: T2, NPC1L1 (Homo sapiens, UniProt Q9UHC9); assay: Uptake by Caco-2 cells with NPC1L1 inhibition by ezetimibe glucuronide; type: in vitro ADME; details: 10 µM ezetimibe glucuronide (NPC1L1 inhibitor), n = 3
T2 construct: endogenous in cells; host or cells: Caco-2 clone TC-7
T2 sequence (Q9UHC9 22-1359): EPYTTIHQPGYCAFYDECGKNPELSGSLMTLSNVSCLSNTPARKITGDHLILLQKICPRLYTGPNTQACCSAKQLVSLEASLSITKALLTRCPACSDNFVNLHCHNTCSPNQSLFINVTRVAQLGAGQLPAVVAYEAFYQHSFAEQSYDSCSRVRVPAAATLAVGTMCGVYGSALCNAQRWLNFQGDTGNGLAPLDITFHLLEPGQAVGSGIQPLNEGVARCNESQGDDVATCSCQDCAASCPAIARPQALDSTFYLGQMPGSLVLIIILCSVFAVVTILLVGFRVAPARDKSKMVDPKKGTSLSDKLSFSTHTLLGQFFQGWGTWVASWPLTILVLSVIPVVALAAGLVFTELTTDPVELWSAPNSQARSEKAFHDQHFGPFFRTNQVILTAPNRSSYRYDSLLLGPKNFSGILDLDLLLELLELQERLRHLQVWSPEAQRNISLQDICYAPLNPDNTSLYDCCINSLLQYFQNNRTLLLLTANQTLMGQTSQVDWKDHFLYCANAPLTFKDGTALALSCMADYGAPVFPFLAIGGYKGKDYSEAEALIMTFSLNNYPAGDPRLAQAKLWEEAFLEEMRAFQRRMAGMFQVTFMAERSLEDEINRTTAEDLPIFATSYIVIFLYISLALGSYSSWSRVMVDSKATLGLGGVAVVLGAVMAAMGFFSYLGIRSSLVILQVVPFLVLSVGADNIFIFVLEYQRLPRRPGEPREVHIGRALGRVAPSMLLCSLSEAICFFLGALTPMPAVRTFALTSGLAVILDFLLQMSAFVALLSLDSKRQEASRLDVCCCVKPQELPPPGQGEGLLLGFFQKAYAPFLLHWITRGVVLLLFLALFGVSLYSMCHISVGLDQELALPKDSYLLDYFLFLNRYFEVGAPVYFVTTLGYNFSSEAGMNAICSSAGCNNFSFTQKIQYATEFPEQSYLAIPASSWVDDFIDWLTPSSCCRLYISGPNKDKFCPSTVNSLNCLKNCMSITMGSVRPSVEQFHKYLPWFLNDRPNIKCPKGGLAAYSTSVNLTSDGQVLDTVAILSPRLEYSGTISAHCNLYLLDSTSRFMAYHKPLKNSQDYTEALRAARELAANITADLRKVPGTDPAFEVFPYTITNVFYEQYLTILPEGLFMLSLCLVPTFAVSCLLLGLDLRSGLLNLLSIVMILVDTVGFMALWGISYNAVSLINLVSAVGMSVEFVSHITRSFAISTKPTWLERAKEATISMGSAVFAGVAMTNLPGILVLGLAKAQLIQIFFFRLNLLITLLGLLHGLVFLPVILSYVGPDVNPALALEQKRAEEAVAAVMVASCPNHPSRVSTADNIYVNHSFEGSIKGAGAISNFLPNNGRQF
Procedure: as §3

[5] = tested on: ASBT; assay: Uptake by Caco-2 cells with ASBT inhibition by simvastatin; type: in vitro ADME, human; details: 100 µM simvastatin (ASBT inhibitor), n = 3
Procedure: as §3, with “Cells were either harvested (control) or they received apical medium containing vitamin D-free mixed micelles for 1 h.” left out

[6] = target: T3, human ASBT (Homo sapiens, UniProt Q12908); assay: Uptake by Griptite cells overexpressing ASBT; type: in vitro ADME; details: Griptite cells transfected with human ASBT vs empty plasmid, 37 °C, 1 h
T3 construct: host or cells: Griptite cells (HEK-293-derived, own knowledge)
T3 sequence (Q12908 1-348): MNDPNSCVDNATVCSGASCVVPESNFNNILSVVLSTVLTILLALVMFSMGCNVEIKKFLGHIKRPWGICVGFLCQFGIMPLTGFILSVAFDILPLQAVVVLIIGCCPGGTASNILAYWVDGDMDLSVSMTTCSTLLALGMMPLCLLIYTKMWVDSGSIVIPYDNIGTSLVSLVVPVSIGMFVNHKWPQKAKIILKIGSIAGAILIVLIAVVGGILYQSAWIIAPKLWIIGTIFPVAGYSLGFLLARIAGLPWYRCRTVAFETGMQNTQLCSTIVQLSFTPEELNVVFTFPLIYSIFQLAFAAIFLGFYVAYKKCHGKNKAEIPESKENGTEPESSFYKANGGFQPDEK
Procedure: Griptite cells were cultured and transfected with 3 µg DNA (either ASBT in pCMV plasmid or empty pCMV control plasmid) similarly to HEK cells, as previously described. Transfection efficiency was verified by western blotting, as previously published. A pre-incubation of the cell monolayers with DMEM supplemented with either DMSO (control) or 100 µM simvastatin was performed during 30 min. Synthetic mixed micelles containing vitamin D forms were diluted in DMEM (1:5) to avoid cytotoxicity [23](data not shown). Apical uptake of vitamin D forms was determined after a 1 h-incubation with a solution of micellar vitamin D containing either DMSO or 100 µM simvastatin (final concentration of DMSO in both conditions: 0.01%). The % of vitamin D taken up was estimated as the quantity of vitamin D present in the harvested cells divided by the sum of the quantity of vitamin D remaining in the apical chamber and that present in the harvested cells.

[7] = set-up: method as in PubChem Website; details: ref PubChem Website; cited from earlier work

SMILES	incorporation efficiency into synthetic mixed micelles [1] [%]	fold improvement of solubilization into mixed micelles compared to 25-hydroxycholecalciferol ([1]; vs 25-hydroxycholecalciferol) [fold]	fold improvement of solubilization into mixed micelles compared to cholecalciferol ([1]; vs cholecalciferol) [fold]	uptake rate by Caco-2 cells at high concentration [2] [%]	uptake rate by Caco-2 cells at low concentration [2] [%]	decrease of uptake in the presence of BLT1 [3]	decrease of uptake in the presence of ezetimibe glucuronide [4]	decrease of uptake in the presence of simvastatin [5]	effect of ASBT overexpression on uptake [6]	log P [7]
C=C1/C(=C\C=C2/CCC[C@]3(C)[C@@H]([C@H](C)CCCC(C)C)CC[C@@H]23)C[C@@H](O)C[C@@H]1O [1α(OH)D3, 1-α-hydroxycholecalciferol]	62	2.9	1.6	25	18	not significantly modified	but not	~15%	changed neither	6.8
C=C1CC[C@H](O)C/C1=C/C=C1\CCC[C@]2(C)[C@@H]([C@H](C)CCCC(C)C)CC[C@@H]12 [D3, cholecalciferol]	39			18	10	31%	30%	about 24%	changed neither	7.9
C=C1CC[C@H](O)C/C1=C/C=C1\CCC[C@]2(C)[C@@H]([C@H](C)CCCC(C)(C)O)CC[C@@H]12 [25(OH)D3, 25-hydroxycholecalciferol]	21			34	29	not significantly modified	but not			6.2
